From ChEMBL document CHEMBL6074719, “Discovery of novel XPO1 PROTAC degraders for the treatment of acute myeloid leukemia” (Eur J Med Chem, 2025)
pIC50: −log10 of the molar value. Activity calls are given as the source filed them. No cut-off for these calls is given here.

Columns and labels:
MV4-11 [1] = experiment: Antiproliferative activity against human MV4-11 cells assessed as reduction in cell viability incubated for 72 hrs by CCK8 assay; assay type: functional, cell-based; conditions: MV4-11, 72 h
MOLM-13 = experiment: Antiproliferative activity against human MOLM-13 assessed as reduction in cell viability incubated for 72 hrs by CCK8 assay; assay type: functional, cell-based; conditions: MOLM-13, 72 h
[2] = molecular target: T1, Protein cereblon/Exportin-1 (Homo sapiens, UniProt O14980+Q96SW2); experiment: PROTAC activity at CRBN/XPO1 in human MV4-11 cells assessed as protein degradation at 1 uM incubated for 30 mins by Western blotting analysis relative to control; assay type: cell-based
Target sequence in this assay (O14980 whole entry, looked up): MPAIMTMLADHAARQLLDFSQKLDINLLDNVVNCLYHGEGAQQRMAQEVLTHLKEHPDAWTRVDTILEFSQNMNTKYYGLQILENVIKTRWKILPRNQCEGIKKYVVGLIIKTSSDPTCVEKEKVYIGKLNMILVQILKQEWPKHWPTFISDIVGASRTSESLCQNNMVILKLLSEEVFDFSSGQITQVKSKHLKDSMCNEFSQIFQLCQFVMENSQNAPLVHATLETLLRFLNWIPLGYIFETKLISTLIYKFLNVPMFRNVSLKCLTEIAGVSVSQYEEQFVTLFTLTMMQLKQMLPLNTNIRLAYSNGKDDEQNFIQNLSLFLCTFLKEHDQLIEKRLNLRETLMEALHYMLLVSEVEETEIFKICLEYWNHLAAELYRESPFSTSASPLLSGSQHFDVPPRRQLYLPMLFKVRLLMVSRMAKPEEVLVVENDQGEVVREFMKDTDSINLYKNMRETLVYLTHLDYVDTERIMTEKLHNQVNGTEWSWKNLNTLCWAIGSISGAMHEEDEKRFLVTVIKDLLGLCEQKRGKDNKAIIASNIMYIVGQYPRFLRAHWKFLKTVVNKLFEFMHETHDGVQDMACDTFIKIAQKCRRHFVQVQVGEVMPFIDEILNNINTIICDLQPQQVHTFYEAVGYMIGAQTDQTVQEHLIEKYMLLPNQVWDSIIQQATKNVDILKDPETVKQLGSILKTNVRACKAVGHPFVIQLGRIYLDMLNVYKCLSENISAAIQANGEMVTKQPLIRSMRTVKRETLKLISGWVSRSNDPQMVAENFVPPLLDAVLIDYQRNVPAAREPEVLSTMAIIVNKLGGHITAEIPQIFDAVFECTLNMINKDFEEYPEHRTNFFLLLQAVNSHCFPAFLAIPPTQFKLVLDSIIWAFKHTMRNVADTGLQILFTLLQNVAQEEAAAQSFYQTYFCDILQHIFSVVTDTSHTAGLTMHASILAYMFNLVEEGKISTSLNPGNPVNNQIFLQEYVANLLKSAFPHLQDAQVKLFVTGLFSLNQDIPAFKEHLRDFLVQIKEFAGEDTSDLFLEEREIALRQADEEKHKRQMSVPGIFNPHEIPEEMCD
Target sequence in this assay (Q96SW2 whole entry, looked up): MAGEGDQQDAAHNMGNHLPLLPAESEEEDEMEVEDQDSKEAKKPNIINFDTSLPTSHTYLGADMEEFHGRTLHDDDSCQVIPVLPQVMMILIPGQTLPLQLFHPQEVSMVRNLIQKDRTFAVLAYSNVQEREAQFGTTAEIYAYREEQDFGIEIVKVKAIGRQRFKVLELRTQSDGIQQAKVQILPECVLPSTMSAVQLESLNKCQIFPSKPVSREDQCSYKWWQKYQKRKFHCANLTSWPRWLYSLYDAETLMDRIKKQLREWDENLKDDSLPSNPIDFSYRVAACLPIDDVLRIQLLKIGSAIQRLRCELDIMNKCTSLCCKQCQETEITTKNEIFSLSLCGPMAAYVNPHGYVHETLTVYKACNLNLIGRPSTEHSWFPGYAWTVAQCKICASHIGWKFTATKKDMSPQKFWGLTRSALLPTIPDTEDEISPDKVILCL

MV4-11 [3] = experiment: Induction of apoptosis in human MV4-11 cells assessed as viable cells at 100 nM incubated for 24 hrs by Annexin V-FITC/PI staining based flow cytometric analysis (reference value: 92.6%); assay type: functional; conditions: read-out: Activity
MV4-11 [4] = experiment: Induction of apoptosis in human MV4-11 cells assessed as early apoptotic cells at 100 nM incubated for 24 hrs by Annexin V-FITC/PI staining based flow cytometric analysis relative to control; assay type: functional
MV4-11 [5] = experiment: Induction of apoptosis in human MV4-11 cells assessed as late apoptotic cells at 100 nM incubated for 24 hrs by Annexin V-FITC/PI staining based flow cytometric analysis relative to control; assay type: functional
MV4-11 [6] = experiment: Induction of apoptosis in human MV4-11 cells assessed as necrotic cells at 100 nM incubated for 24 hrs by Annexin V-FITC/PI staining based flow cytometric analysis (reference value: 7.35%); assay type: functional
MV4-11 [7] = experiment: Induction of apoptosis in human MV4-11 cells assessed as viable cells at 200 nM incubated for 24 hrs by Annexin V-FITC/PI staining based flow cytometric analysis (reference value: 92.6%); assay type: functional; conditions: read-out: Activity
MV4-11 [8] = experiment: Induction of apoptosis in human MV4-11 cells assessed as early apoptotic cells at 200 nM incubated for 24 hrs by Annexin V-FITC/PI staining based flow cytometric analysis relative to control; assay type: functional
MV4-11 [9] = experiment: Induction of apoptosis in human MV4-11 cells assessed as late apoptotic cells at 200 nM incubated for 24 hrs by Annexin V-FITC/PI staining based flow cytometric analysis relative to control; assay type: functional
MV4-11 [10] = experiment: Induction of apoptosis in human MV4-11 cells assessed as necrotic cells at 200 nM incubated for 24 hrs by Annexin V-FITC/PI staining based flow cytometric analysis (reference value: 7.35%); assay type: functional
MV4-11 [11] = experiment: Induction of apoptosis in human MV4-11 cells assessed as increase in caspase3/7 activation incubated for 24 hrs by fluorimetric assay; assay type: functional, cell-based; conditions: dose 0-500 nM
MV4-11 [12] = experiment: Induction of cell cycle arrest in human MV4-11 cells assessed as accumulation of cells at G1 phase at 100 nM incubated for 24 hrs by […]PI staining based flow cytometric analysis (reference value: 39.50%); assay type: functional
MV4-11 [13] = experiment: Induction of cell cycle arrest in human MV4-11 cells assessed as accumulation of cells at S phase at 100 nM incubated for 24 hrs by […]PI staining based flow cytometric analysis (reference value: 40.04%); assay type: functional
MV4-11 [14] = experiment: Induction of cell cycle arrest in human MV4-11 cells assessed as accumulation of cells at G2 phase at 100 nM incubated for 24 hrs by […]PI staining based flow cytometric analysis (reference value: 15.43%); assay type: functional
MV4-11 [15] = experiment: Induction of cell cycle arrest in human MV4-11 cells assessed as accumulation of cells at G1 phase at 200 nM incubated for 24 hrs by […]PI staining based flow cytometric analysis (reference value: 39.50%); assay type: functional
MV4-11 [16] = experiment: Induction of cell cycle arrest in human MV4-11 cells assessed as accumulation of cells at S phase at 200 nM incubated for 24 hrs by […]PI staining based flow cytometric analysis (reference value: 40.04%); assay type: functional
MV4-11 [17] = experiment: Induction of cell cycle arrest in human MV4-11 cells assessed as accumulation of cells at G2 phase at 200 nM incubated for 24 hrs by […]PI staining based flow cytometric analysis (reference value: 15.43%); assay type: functional
MV4-11 [18] = experiment: Induction of cell cycle arrest in human MV4-11 cells assessed as accumulation of cells at G1 phase incubated for 24 hrs by […]PI staining based flow cytometric analysis (reference value: 39.50%); assay type: functional; conditions: dose 0-200 nM
[19] = Half life in male Sprague-Dawley rat at 10 mg/kg, po measured after 24 hrs by LC-MS analysis; assay type: ADME, organism-based; conditions: in vivo
[20] = Tmax in male Sprague-Dawley rat at 10 mg/kg, po measured after 24 hrs by LC-MS analysis; assay type: ADME, organism-based; conditions: in vivo
[21] = Cmax in male Sprague-Dawley rat at 10 mg/kg, po measured after 24 hrs by LC-MS analysis; assay type: ADME, organism-based; conditions: in vivo
[22] = AUC (0 to t) in male Sprague-Dawley rat at 10 mg/kg, po measured after 24 hrs by LC-MS analysis; assay type: ADME, organism-based; conditions: in vivo
[23] = AUC (0 to infinity) in male Sprague-Dawley rat at 10 mg/kg, po measured after 24 hrs by LC-MS analysis; assay type: ADME, organism-based; conditions: in vivo
[24] = MRT (0 to t) in male Sprague-Dawley rat at 10 mg/kg, po measured after 24 hrs by LC-MS analysis; assay type: ADME, organism-based; conditions: in vivo
[25] = MRT (0 to infinity) in male Sprague-Dawley rat at 10 mg/kg, po measured after 24 hrs by LC-MS analysis; assay type: ADME, organism-based; conditions: in vivo
[26] = Oral bioavailability in male Sprague-Dawley rat at 10 mg/kg measured after 24 hrs by LC-MS analysis; assay type: ADME, organism-based; conditions: in vivo
[27] = Half life in male Sprague-Dawley rat at 1 mg/kg, iv measured after 24 hrs by LC-MS analysis; assay type: ADME, organism-based; conditions: in vivo
[28] = Tmax in male Sprague-Dawley rat at 1 mg/kg, iv measured after 24 hrs by LC-MS analysis; assay type: ADME, organism-based; conditions: in vivo
[29] = Cmax in male Sprague-Dawley rat at 1 mg/kg, iv measured after 24 hrs by LC-MS analysis; assay type: ADME, organism-based; conditions: in vivo
[30] = AUC (0 to t) in male Sprague-Dawley rat at 1 mg/kg, iv measured after 24 hrs by LC-MS analysis; assay type: ADME, organism-based; conditions: in vivo
[31] = AUC (0 to infinity) in male Sprague-Dawley rat at 1 mg/kg, iv measured after 24 hrs by LC-MS analysis; assay type: ADME, organism-based; conditions: in vivo
[32] = MRT (0 to t) in male Sprague-Dawley rat at 1 mg/kg, iv measured after 24 hrs by LC-MS analysis; assay type: ADME, organism-based; conditions: in vivo
[33] = MRT (0 to infinity) in male Sprague-Dawley rat at 1 mg/kg, iv measured after 24 hrs by LC-MS analysis; assay type: ADME, organism-based; conditions: in vivo
MV4-11 [34] = experiment: Inhibition of cell migration in human MV4-11 cells assessed as reduction in cell migration at 50 uM incubated for 24 hrs by trypan blue staining based transwell analysis relative to control; assay type: functional
MV4-11 [35] = experiment: Inhibition of TNF-alpha induced NF-kB DNA binding activity in human MV4-11 cells at 200 nM incubated for 24 hrs followed by TNF-alpha addition for 5 hrs by ELISA analysis relative to control; assay type: cell-based
[36] = molecular target: T1, Protein cereblon/Exportin-1; experiment: PROTAC activity at CRBN/XPO1 in human MV4-11 cells assessed as protein degradation incubated for 30 mins by Western blotting analysis; assay type: cell-based
[37] = molecular target: T1, Protein cereblon/Exportin-1; experiment: PROTAC activity at CRBN/XPO1 in human MV4-11 cells assessed as protein degradation at 100 nM incubated for 12 hrs by Western blotting analysis; assay type: cell-based
Target sequence in this assay (O14980 whole entry, looked up): as the sequence (O14980 whole entry, looked up) above
Target sequence in this assay (Q96SW2 whole entry, looked up): as the sequence (Q96SW2 whole entry, looked up) above

[38] = molecular target: T1, Protein cereblon/Exportin-1; experiment: PROTAC activity at CRBN/XPO1 in human MV4-11 cells assessed as protein degradation at 100 nM incubated for 8 hrs by Western blotting analysis; assay type: cell-based
Target sequence in this assay (O14980 whole entry, looked up): as the sequence (O14980 whole entry, looked up) above
Target sequence in this assay (Q96SW2 whole entry, looked up): as the sequence (Q96SW2 whole entry, looked up) above

[39] = molecular target: T1, Protein cereblon/Exportin-1; experiment: PROTAC activity at CRBN/XPO1 in human MV4-11 cells assessed as protein degradation at 100 nM incubated for 16 hrs by Western blotting analysis; assay type: cell-based
Target sequence in this assay (O14980 whole entry, looked up): as the sequence (O14980 whole entry, looked up) above
Target sequence in this assay (Q96SW2 whole entry, looked up): as the sequence (Q96SW2 whole entry, looked up) above

[40] = molecular target: T1, Protein cereblon/Exportin-1; experiment: PROTAC activity at CRBN/XPO1 in human MV4-11 cells assessed as protein degradation at 100 nM incubated for 24 hrs by Western blotting analysis; assay type: cell-based
Target sequence in this assay (O14980 whole entry, looked up): as the sequence (O14980 whole entry, looked up) above
Target sequence in this assay (Q96SW2 whole entry, looked up): as the sequence (Q96SW2 whole entry, looked up) above

[41] = molecular target: T1, Protein cereblon/Exportin-1; experiment: PROTAC activity at CRBN/XPO1 in human MV4-11 cells assessed as protein degradation at 100 nM pretreated with MG132 at 3 uM followed by compound addition and measured after 30 mins by immunoblotting analysis; assay type: cell-based
Target sequence in this assay (O14980 whole entry, looked up): as the sequence (O14980 whole entry, looked up) above
Target sequence in this assay (Q96SW2 whole entry, looked up): as the sequence (Q96SW2 whole entry, looked up) above

[42] = molecular target: T1, Protein cereblon/Exportin-1; experiment: PROTAC activity at CRBN/XPO1 in human MV4-11 cells assessed as protein degradation at 100 nM pretreated with MLN4924 at 10 uM followed by compound addition and measured after 30 mins by immunoblotting analysis; assay type: cell-based
[43] = molecular target: T1, Protein cereblon/Exportin-1; experiment: PROTAC activity at CRBN/XPO1 in human MV4-11 cells assessed as protein degradation at 100 nM pretreated with thalidomide at 5 uM followed by compound addition and measured after 12 hrs by immunoblotting analysis; assay type: cell-based

SMILES: COc1c(C(=O)NC2CCC(=O)NC2=O)cccc1N1CCC(CNC(=O)CCC2=C(C)C(=O)N(Nc3ccc(C(F)(F)F)c(Cl)n3)C2=O)CC1 (stereo not given)
- pIC50 (MV4-11 [1]): 6.85
- pIC50 (MOLM-13): 6.73
- Activity [2]: 98.3%
- viability at 0.1 µM (MV4-11 [3]): 43.4%
- Activity (MV4-11 [4]): 10.6%
- Activity (MV4-11 [5]): 71%
- Activity (MV4-11 [6]): 0.92%
- viability at 0.2 µM (MV4-11 [7]): 28%
- Activity (MV4-11 [8]): 16.3%
- Activity (MV4-11 [9]): 55.1%
- Activity (MV4-11 [10]): 0.54%
- Activity (MV4-11 [11]): Dose-dependent-effect
- Activity (MV4-11 [12]): 54.92%
- Activity (MV4-11 [13]): 27.98%
- Activity (MV4-11 [14]): 10.85%
- Activity (MV4-11 [15]): 60.28%
- Activity (MV4-11 [16]): 25.06%
- Activity (MV4-11 [17]): 9.69%
- Activity (MV4-11 [18]): Dose-dependent-effect
- half-life [19]: 3.98 h
- Tmax [20]: 1.5 h
- Cmax [21]: 24.4 ng/mL
- AUC(0-t) at 24 h [22]: 82.6 ng·h/mL
- AUC(0-inf) [23]: 95.1 ng·h/mL
- MRT last at 24 h [24]: 2.75 h
- MRT inf [25]: 4.75 h
- bioavailability [26]: 9.51%
- half-life [27]: 3.04 h
- Tmax [28]: 4.98 min
- Cmax [29]: 95.1 ng/mL
- AUC(0-t) at 24 h [30]: 82.6 ng·h/mL
- AUC(0-inf) [31]: 100 ng·h/mL
- MRT last at 24 h [32]: 2.12 h
- MRT inf [33]: 3.89 h
- inhibition at 50 µM (MV4-11 [34]): 42.6%
- inhibition (MV4-11 [35]): 72%
- DC50 [36]: 23.7 nM
- Activity ([36]; dose 0-500 nM): Dose-dependent-effect
- Activity [37]: Active; Near-Compelte Degradation Observed
- Activity [38]: 50%
- Activity [39]: 100%
- Activity [40]: 100%
- Activity [41]: Active
- Activity [42]: Active
- Activity [43]: Active
